Holding throughout (assay): DTP human tumour cell line panel, 48 h
Assay [1] concerns MDA-MB-231.
In assay [2] the test system is SK-OV-3.
Assay [3] relates to TK-10.
Assay [4] concerns OVCAR-3.
The test system of assay [5] is NCI-H226.
Assay [6] deals with U-251.
Assay [7] has as its system HCT-116.
The test system of assay [8] is PC-3.
Assay [9] relates to COLO 205.
Assay [10] deals with HOP-62.
For assay [11], the system named is SF-295.
The test system of assay [12] is OVCAR-5.
The test system of assay [13] is SR.
The test system of assay [14] is OVCAR-4.
Assay [15] relates to HCC 2998.
Assay [16] relates to SW-620.
In assay [17] the test system is UACC-257.
Assay [18] has as its system 786-0.
For assay [19], the system named is NCI-H460.

Each structure is given as a SMILES string.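 Exposure lasted 48 hours, with cells grown in 96-well plates and compounds tested at five concentrations. At the GI50, growth is halved.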 Activity calls are given as the source filed them. No stated cut-off is given here; in the data, active = GI50 up to about 1.1 µM and inactive = higher.

As usually defined, the GI50 is the concentration at which growth is held to half of that of the control.

Consider `O=C1c2ccccc2C(=O)N1C1(C(=O)NC2(C(=O)O)CCCC2)CCCC1`, for which the GI50 in [1], in assay [2], in [3], in [4], in assay [5] and in assay [6] was > 100 µM (inactive) throughout. Also, the GI50 in assay [7], in assay [8], in assay [9], in [10], in assay [11] and in assay [12] was > 100 µM (inactive) throughout. The GI50 in [13], in assay [14], in assay [15], in assay [16], in assay [17] and in assay [18] was > 100 µM (inactive) throughout.
Regarding `O=C(O)/C(=C\c1ccc(O)cc1)c1cccc2ccccc12`, the GI50 in assay [1] was > 100 µM (inactive); in [3], > 100 µM (inactive); in assay [4], 64.4 µM (inactive); in assay [5], > 100 µM (inactive); in assay [6], > 100 µM (inactive); in assay [19], > 100 µM (inactive). The GI50 was > 100 µM (inactive) in [7]; > 100 µM (inactive) in assay [8]; 35 µM (inactive) in assay [10]; > 100 µM (inactive) in assay [11]; > 100 µM (inactive) in assay [12]; > 100 µM (inactive) in assay [13]. Moreover, the GI50 in assay [14], in assay [15], in [16], in [17] and in assay [18] was > 100 µM (inactive) in each case.
As for `O=C1CCc2cc([N+](=O)[O-])ccc2O1`, the GI50 in assay [1], in assay [3], in assay [4], in assay [5], in assay [6] and in assay [19] was > 100 µM (inactive) each time. For the same compound, the GI50 in assay [7], in assay [8], in assay [9], in assay [10], in [11] and in assay [12] was > 100 µM (inactive) in each case. In addition, the GI50 in assay [13], in [14], in assay [15], in [16], in [17] and in assay [18] was > 100 µM (inactive) throughout.
`COc1ccc(-n2c(N)c(C#N)c(C#N)c2-c2cccc([N+](=O)[O-])c2)cc1`: the GI50 in assay [1] was 67 µM (inactive); in assay [2], 43.7 µM (inactive); in assay [3], > 100 µM (inactive); in assay [4] it was > 100 µM (inactive); in assay [5] it was > 100 µM (inactive); in assay [6], 38.8 µM (inactive). In addition, the GI50 in [8] was 33.5 µM (inactive); in assay [9], > 100 µM (inactive); in assay [10], 67.5 µM (inactive); in assay [11], 42.5 µM (inactive); in [12], > 100 µM (inactive); in assay [13] it was 18.7 µM (inactive). Besides, the GI50 is 26.5 µM (inactive) in [14]; > 100 µM (inactive) in assay [15]; > 100 µM (inactive) in [16]; > 100 µM (inactive) in [17]; 33.9 µM (inactive) in assay [18].
Consider `CC(C)c1cccc(C(=O)NCCN(C)C)c1[N+](=O)[O-]`, for which the GI50 in [1], in [2], in assay [3], in assay [4], in assay [5] and in [6] was > 100 µM (inactive) each time. The GI50 in assay [19], in assay [7], in [8], in assay [9], in assay [10] and in assay [11] was > 100 µM (inactive) in each case. The GI50 in assay [12], in [13], in assay [15], in assay [16], in assay [17] and in assay [18] was > 100 µM (inactive) each time.
Take `N#Cc1nc(C2CC2)oc1N`: the GI50 in assay [1], in assay [2], in [3], in assay [4], in assay [5] and in assay [6] was > 100 µM (inactive) throughout. Further, the GI50 in [7], in [8], in assay [9], in assay [10], in assay [11] and in [12] was > 100 µM (inactive) in each case. For the same compound, the GI50 in assay [13], in assay [14], in assay [15], in assay [16], in assay [17] and in assay [18] was > 100 µM (inactive) throughout.
On to `CCCc1cc(=O)oc2c(C=O)c(O)cc(O)c12`, for which the GI50 in [1] was 17.5 µM (inactive); in assay [2], 27.8 µM (inactive); in assay [3], > 100 µM (inactive); in assay [4], 18.7 µM (inactive); in [6] it was 22.5 µM (inactive); in assay [19] it was 24.8 µM (inactive). For the same compound, the GI50 in assay [7] is 21.8 µM (inactive); in [8], 25.1 µM (inactive); in assay [9] it was 17.7 µM (inactive); in assay [10], 22.3 µM (inactive); in assay [11], 29.9 µM (inactive); in [12] it was 26.7 µM (inactive). For the same compound, the GI50 in assay [13] is 27.8 µM (inactive); in assay [14] it was 25.8 µM (inactive); in [15], 16.7 µM (inactive); in assay [16], 21.8 µM (inactive); in assay [17] it was 24.6 µM (inactive); in [18] it was 30.1 µM (inactive).
Consider `Cc1ccc(/N=N/C(=O)NNc2ccc(C)cc2Br)c(Br)c1`, for which the GI50 in assay [1] was 26.3 µM (inactive); in assay [3], 31.1 µM (inactive); in assay [4] it was 19.9 µM (inactive); in [5] it was 21.3 µM (inactive); in assay [6], 16.1 µM (inactive); in assay [19], 17.3 µM (inactive). The GI50 in assay [7] was 10.9 µM (inactive); in [8], 11.9 µM (inactive); in [10], 19.6 µM (inactive); in [12], 19.4 µM (inactive); in assay [13], 14.7 µM (inactive); in assay [14] it was 37.5 µM (inactive). Besides, the GI50 is 16.4 µM (inactive) in assay [15], 32.7 µM (inactive) in assay [16], 26.8 µM (inactive) in assay [17] and 18.4 µM (inactive) in assay [18].
For `O=c1[nH]nc(Cc2ccccc2)n1/N=C\CC/C=N\n1c(Cc2ccccc2)n[nH]c1=O`, the GI50 in [1] is 61.9 µM (inactive); in [2], 31.3 µM (inactive); in [3], > 100 µM (inactive); in [4], 61.7 µM (inactive); in assay [5], 33.9 µM (inactive); in assay [6], 34 µM (inactive). The GI50 in assay [7] is 18.5 µM (inactive); in assay [8], 37.4 µM (inactive); in [9] it was > 100 µM (inactive); in assay [10], 22.1 µM (inactive); in [11], 39.1 µM (inactive); in [12] it was > 100 µM (inactive). Also, the GI50 in assay [13] is 9.77 µM (inactive); in assay [14] it was 48.8 µM (inactive); in assay [15], 53.8 µM (inactive); in assay [16], 36.3 µM (inactive); in assay [17], > 100 µM (inactive); in [18] it was 29.5 µM (inactive).
Turning to `Cc1ccc2cc3c(ccc4ccccc43)c3c2c1CC3` [3-METHYLCHOLANTHRENE], the GI50 in assay [1], in assay [2], in assay [3], in assay [4], in assay [5] and in [6] was > 100 µM (inactive) throughout. In addition, the GI50 in assay [19], in [7], in [8], in [9], in assay [10] and in assay [11] was > 100 µM (inactive) throughout. Also, the GI50 in [13], in [15], in [16], in [17] and in [18] was > 100 µM (inactive) in each case.
Consider `c1ccc(-c2cccc(-c3ccccn3)n2)nc1` [TERPYRIDINE], for which the GI50 was 0.397 µM (active) in [1]; 0.783 µM (active) in assay [2]; 0.847 µM (active) in assay [3]; 0.316 µM (active) in [4]; 0.548 µM (active) in assay [6]; 0.382 µM (active) in assay [19]. For the same compound, the GI50 is 0.344 µM (active) in assay [7]; 0.409 µM (active) in assay [8]; 0.254 µM (active) in assay [9]; 0.52 µM (active) in [10]; 0.288 µM (active) in [11]; 0.755 µM (active) in assay [12]. The GI50 was 0.317 µM (active) in assay [13]; 0.558 µM (active) in [14]; 0.298 µM (active) in assay [15]; 1.06 µM (active) in assay [16]; 0.425 µM (active) in assay [17]; 0.368 µM (active) in [18].

The values are drawn from ChEMBL document CHEMBL1201862, “PubChem BioAssay data set” (2004).
